Results: US8741834B2, “Dipeptoid prodrugs and the use thereof” (Bayer Intellectual Property GmbH, priority 2008, dated 2014)
Structures can show the parent of a compound that is named as a salt.

Assay: Stability in buffer at various pH values
Assay type: physicochemical
Description: 0.3 mg of the test substance is weighed into a 2 ml HPLC vial and 0.5 ml of acetonitrile or acetonitrile/DMSO (9:1) is added. The substance is dissolved by putting the sample vessel in an ultrasonic bath for about 10 seconds. Then 0.5 ml of the respective buffer solution is added, and the sample is again treated in the ultrasonic bath.
pH 2: 0.03 mol of citric acid, 0.061 mol of sodium chloride and 0.0082 mol of hydrochoric acid ad 1 liter of water;
pH 4: 1 liter of Millipore water is adjusted to pH 4.0 with 1 N hydrochloric acid;
pH 5: 0.096 mol of citric acid and 0.2 mol of sodium hydroxide ad 1 liter of water;
pH 6: 0.06 mol of citric acid and 0.16 mol of sodium hydroxide ad 1 liter of water;
pH 7.4: 90.0 g of sodium chloride, 13.61 g of potassium dihydrogen phosphate and 83.35 g of 1 N sodium hydroxide solution are made up to 1 liter with water; this solution is then further diluted 1:10 with Millipore water.
pH 8: 0.013 mol of borax and 0.021 mol of hydrochloric acid ad 1 liter of water.
5 μl portions of the test solution are analyzed by HPLC for their content of unchanged test substance, and of active substance (A) formed, every hour over a period of 24 hours at 37° C. The percentage areas of the appropriate peaks are used for quantification.
The ratios of the peak areas (F) at the respective time points in relation to the peak areas at the starting time are shown in Table 2 for representative exemplary embodiments: […]

% test substance after 4 h [F(t = 4 h) × 100/F(t = 0 h)] (pH 4, 37° C.) [%] | % test substance after 24 h [F(t = 24 h) × 100/F(t = 0 h)] (pH 4, 37° C.) [%] | % test substance after 4 h [F(t = 4 h) × 100/F(t = 0 h)] (pH 5, 37° C.) [%] | % test substance after 24 h [F(t = 24 h) × 100/F(t = 0 h)] (pH 5, 37° C.) [%] | % test substance after 4 h [F(t = 4 h) × 100/F(t = 0 h)] (pH 7.4, 37° C.) [%] | % test substance after 24 h [F(t = 24 h) × 100/F(t = 0 h)] (pH 7.4, 37° C.) [%] | SMILES
100 | 99 | 97 | 92 | 84 | 34 | CC(C)[C@H](N)C(=O)N[C@@H](C)C(=O)OC[C@H](COc1ccc(-c2c(C#N)c(N)nc(SCc3coc(-c4ccc(Cl)cc4)n3)c2C#N)cc1)OC(=O)[C@H](C)NC(=O)[C@@H](N)C(C)C [Example 26, (2S)-3-{4-[2-Amino-6-({[2-(4-chlorophenyl)-1,3-oxazol-4-yl]methyl}sulfanyl)-3,5-dicyanopyridin-4-yl]phenoxy}propane-1,2-diyl (2S,2′S)-bis(2-{[(2S)-2-amino-3-methylbutanoyl]amino}propanoate)dihydrochloride]
96 | 95 | – | – | 100 | 91 | C[C@H](NC(=O)C[C@H](N)C(=O)O)C(=O)OC[C@H](COc1ccc(-c2c(C#N)c(N)nc(SCc3coc(-c4ccc(Cl)cc4)n3)c2C#N)cc1)OC(=O)[C@H](C)NC(=O)C[C@H](N)C(=O)O [Example 14, (2S,6S,9S,13S,17S)-2,17-Diamino-9-({4-[2-amino-6-({[2-(4-chlorophenyl)-1,3-oxazol-4-yl]methyl}sulfanyl)-3,5-dicyanopyridin-4-yl]phenoxy}methyl)-6,13-dimethyl-4,7,12,15-tetraoxo-8,11-dioxa-5,14-diazaoctadecane-1,18-dioic acid bis(trifluoroacetic acid) salt]
100 | 99 | – | – | 99 | 88 | CC(C)[C@H](NC(=O)[C@H](C)N)C(=O)OC[C@H](COc1ccc(-c2c(C#N)c(N)nc(SCc3coc(-c4ccc(Cl)cc4)n3)c2C#N)cc1)OC(=O)[C@@H](NC(=O)[C@H](C)N)C(C)C [Example 28, (2S)-3-{4-[2-Amino-6-({[2-(4-chlorophenyl)-1,3-oxazol-4-yl]methyl}sulfanyl)-3,5-dicyanopyridin-4-yl]phenoxy}propane-1,2-diyl(2S,2′S)-bis(2-{[(2S)-2-aminopropanoyl]amino}-3-methylbutanoate)dihydrochloride]
100 | 99 | – | – | 0 | 0 | C[C@H](NC(=O)[C@@H](N)CCCCN)C(=O)OC[C@@H](COc1ccc(-c2c(C#N)c(N)nc(SCc3coc(-c4ccc(Cl)cc4)n3)c2C#N)cc1)OC(=O)[C@H](C)NC(=O)[C@@H](N)CCCCN [Example 34, (2R)-3-{4-[2-Amino-6-({[2-(4-chlorophenyl)-1,3-oxazol-4-yl]methyl}sulfanyl)-3,5-dicyanopyridin-4-yl]phenoxy}propane-1,2-diyl(2S,2′S)-bis(2-{[(2S)-2,6-diaminohexanoyl]amino}propanoate)tetrahydrochloride]
